Patent US20240067617A1 (Albireo AB, priority 2022, published 2024)

Assays:
hLBAT = molecular target: T1, hLBAT (Homo sapiens, UniProt Q14973); experiment: LBAT (h/m) assay: 3H-taurocholic acid uptake in human LBAT-overexpressing cells; type: cell-based; settings: 0.3 μM 3H-taurocholic acid + 7.5 μM cold taurocholic acid, 20 minutes at 37° C.
T1 construct: expressed in transfected cells; kept under Geneticin selection
T1 sequence (Q14973 1-349): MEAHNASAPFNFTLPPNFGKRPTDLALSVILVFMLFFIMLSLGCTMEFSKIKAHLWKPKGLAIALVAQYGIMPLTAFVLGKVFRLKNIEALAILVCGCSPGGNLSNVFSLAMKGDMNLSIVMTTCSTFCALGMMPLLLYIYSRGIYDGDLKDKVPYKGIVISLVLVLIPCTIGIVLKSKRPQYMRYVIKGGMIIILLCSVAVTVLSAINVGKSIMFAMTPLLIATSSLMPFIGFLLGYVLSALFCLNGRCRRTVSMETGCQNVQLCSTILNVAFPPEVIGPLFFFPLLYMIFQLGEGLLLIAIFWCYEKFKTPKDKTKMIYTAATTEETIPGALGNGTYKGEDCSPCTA
Protocol: LBAT (h/m) Assay Protocol
20,000 cells (Human or Mouse LBAT-overexpressing cells) were seeded in 96-wells plate (Corning CLS3809) in 100 μL MEM-alpha medium (Gibco 12571-063) supplemented with 10% FBS (Gibco 10438026) containing Geneticin (Gibco 10131-027) (1 mg/mL) and incubated at 37° C. in 5% CO2 for 24 hours. After incubation, media was decanted from the wells and cells were washed two times with 300 μL of basal MEM-alpha medium (FBS-free). After decanting basal MEM-alpha medium each time, plates were tapped against paper towel to ensure maximum removal of residual media. For human LBAT, incubation mix was prepared by adding test inhibitor dilutions (3-fold serial dilution in DMSO (Sigma D2650), 10 points) in MEM-alpha (without FBS) containing 0.3 μM 3H-taurocholic acid (ARC ART-1368) and 7.5 μM cold taurocholic acid (Sigma T4009) (maintaining 0.2% final DMSO concentration). For mouse LBAT, incubation mix was prepared by adding test inhibitor dilutions (3-fold serial dilution in DMSO, 10 points) in MEM-alpha (without FBS) containing 0.3 μM 3H-taurocholic acid and 25 μM cold taurocholic acid maintaining 0.2% final DMSO concentration). 50 μL of incubation mix containing test inhibitors was then added to the wells (in duplicate) and the plates were incubated for 20 minutes in a CO2 incubator at 37° C. After incubation, the reaction was stopped by keeping the plates on ice water mix for 2-3 minutes and then the incubation mix was aspirated completely from the wells. The wells were washed two times with 250 μL of chilled unlabelled 1 mM taurocholic acid dissolved in HEPES (Gibco 15630080)-buffered (10 mM) HBSS (Gibco 14175079) (pH 7.4). The plates were tapped against a paper towel after every wash to ensure maximum removal of blocking buffer.
100 μL of MicroScint-20 (PerkinElmer 6013621) was added to the wells and kept overnight at RT before reading the plates in TopCount NXT™ Microplate Scintillation and Luminescence Counter from PerkinElmer under 3H Test protocol (set at 120 seconds reading time per well, with normal plate orientation).
(§1) Preparation of Test Compound Dilutions
(§2) All test compounds were provided in powder form at RT. 10 mM DMSO stocks of the test compounds were prepared, aliquoted and stored at −20° C. From the 10 mM DMSO stock of the compounds, a 3-fold serial dilution in DMSO was prepared to get a total of 10 dilutions of the test compounds. 0.5 μL of this dilution in DMSO was added to 250 μL of FBS-free basal media containing 3H-taurocholic acid and cold taurocholic acid to prepare the incubation mixture.

hIBAT = molecular target: T2, hIBAT (Homo sapiens, UniProt Q12908); experiment: IBAT (h/m) assay: 3H-taurocholic acid uptake in human IBAT-overexpressing cells; type: cell-based; settings: 0.25 μM 3H-taurocholic acid + 5 μM cold taurocholic acid, 20 minutes at 37° C., highest test concentration 10 μM
T2 construct: expressed in transfected cells; kept under Puromycin selection
T2 sequence (Q12908 1-348): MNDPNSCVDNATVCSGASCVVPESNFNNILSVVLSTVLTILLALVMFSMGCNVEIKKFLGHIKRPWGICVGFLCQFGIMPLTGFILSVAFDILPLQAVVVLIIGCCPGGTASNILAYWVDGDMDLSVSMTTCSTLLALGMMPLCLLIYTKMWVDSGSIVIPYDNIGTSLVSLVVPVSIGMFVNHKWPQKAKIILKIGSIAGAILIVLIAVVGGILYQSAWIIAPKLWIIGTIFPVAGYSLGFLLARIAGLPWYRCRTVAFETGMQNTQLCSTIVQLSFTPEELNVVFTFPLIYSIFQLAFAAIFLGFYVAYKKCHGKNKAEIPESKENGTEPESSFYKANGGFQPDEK
Protocol: IBAT (h/m) Assay Protocol
10,000 cells (Human or Mouse IBAT-overexpressing cells) were seeded in 96-wells plate (Corning CLS3809) in 200 μL MEM-alpha medium (Gibco 12571-063) supplemented with 10% FBS (Gibco 10438026) containing Puromycin (Gibco A1113803) (10 μg/mL) and incubated at 37° C. in 5% CO2 for 48 hours. After incubation, media was decanted from the wells and cells were washed two times with 300 μL of basal MEM-alpha medium (FBS-free). After decanting basal MEM-alpha medium each time, plates were tapped against paper towel to ensure maximum removal of residual media. Test inhibitor dilutions (highest test concentration being 10 μM, 3-fold serial dilution, 10 points) prepared in DMSO (Sigma D2650) were added in incubation mix (maintaining 0.2% final DMSO concentration) containing 0.25 μM 3H-taurocholic acid (ARC ART-1368) and 5 μM of cold taurocholic acid (Sigma T4009). 50 μL of incubation mix containing test inhibitors was then added to the wells (in duplicate) and the plates were incubated for 20 minutes in a CO2 incubator at 37° C. After incubation, the reaction was stopped by keeping the plates on ice water mix for 2-3 minutes and then the incubation mix was aspirated completely from the wells. The wells were washed two times with 250 μL of chilled unlabelled 1 mM taurocholic acid dissolved in HEPES (Gibco 15630080)-buffered (10 mM) HBSS (Gibco 14175079) (pH 7.4). The plates were tapped against a paper towel after every wash to ensure maximum removal of blocking buffer.
100 μL of MicroScint-20 (PerkinElmer 6013621) was added to the wells and kept overnight at RT before reading the plates in TopCount NXT™ Microplate Scintillation and Luminescence Counter from PerkinElmer under 3H Test protocol (set at 120 seconds reading time per well).
as §1, §2

Row | IC50 (hLBAT) [nM] | IC50 (hIBAT) [nM] | Compound
1 | 245 | 5110 | CCCCC1(CC)CN(c2ccccc2)c2cc(OC)c(CSC(C)(C)C(=O)O)cc2S(=O)(=O)C1 (single isomer, unassigned) [26, enantiomer 2]
2 | 223 | 704 | CCCCC1(C)CN(c2ccccc2)c2cc(OC)c(CSC(C)(C)C(=O)O)cc2S(=O)(=O)C1 (single isomer, unassigned) [42, enantiomer 1]
3 | 3150 | 2.8 | CCCCC1(CC)CN(c2ccccc2)c2cc(SC)c(CSCC(=O)O)cc2S(=O)(=O)C1 (single isomer, unassigned) [2, enantiomer 2]
4 | 85 | > 3330 | CCCCC1(CC)CN(c2ccccc2)c2cc(SC)c(CSC(C)(C)C(=O)O)cc2S(=O)(=O)N1C (stereo not drawn) [Example 24]
5 | 220 | 659 | CCCCC1(CC)CN(c2ccc(F)cc2)c2cc(SC)c(CSC(C)(C)C(=O)O)cc2S(=O)(=O)C1 (single isomer, unassigned) [16, enantiomer 2]
6 | 110 | 161 | CCCCC1(CC)CN(c2ccc(F)cc2)c2cc(OC)c(CSC(C)(C)C(=O)O)cc2S(=O)(=O)C1 (single isomer, unassigned) [34, enantiomer 1]
7 | 1900 | > 554 | CCCCC1(CC)CN(c2ccccc2)c2cc(SC)c(CSCC(=O)O)cc2S(=O)(=O)N1C (single isomer, unassigned) [21, enantiomer 2]
8 | 176 | 60 | CCCCC1(CC)CN(c2ccc(F)cc2)c2cc(SC)c(CSC(C)(C)C(=O)O)cc2S(=O)(=O)C1 (racemic) [Example 15, 2-(((3-Butyl-3-ethyl-5-(4-fluorophenyl)-7-(methylthio)-1,1-dioxido-2,3,4,5-tetrahydro-1,5-benzothiazepin-8-yl)methyl)thio)-2-methylpropanoic acid]
9 | > 3330 | 0.5 | CCCCC1(CC)CN(c2ccccc2)c2cc(SC)c(CSCC(=O)O)cc2S(=O)(=O)N1 (racemic) [Example 9, 2-(((3-butyl-3-ethyl-7-(methylthio)-1,1-dioxido-5-phenyl-2,3,4,5-tetrahydro-1,2,5-benzothiadiazepin-8-yl)methyl)thio)acetic acid]
10 | > 10000 | 7.7 | CCCCC1(C)CN(c2ccccc2)c2cc(OC)c(CSCC(=O)O)cc2S(=O)(=O)C1 (single isomer, unassigned) [28, enantiomer 1]
11 | 104 | 195 | CCCCC1(CC)CN(c2ccccc2)c2cc(OC)c(CSC(C)(C)C(=O)O)cc2S(=O)(=O)C1 (single isomer, unassigned) [26, enantiomer 1]
12 | > 1000 | 0.1 | CCCCC1(C)CN(c2ccccc2)c2cc(SC)c(CSCC(=O)O)cc2S(=O)(=O)N1 (stereo not drawn) [Example 54, 2-(((3-Butyl-3-methyl-7-(methylthio)-1,1-dioxido-5-phenyl-2,3,4,5-tetrahydro-1,2,5-benzothiadiazepin-8-yl)methyl)thio)acetic acid]
13 | 7260 | 0.8 | CCCCC1(C)CN(c2ccccc2)c2cc(SC)c(CSCC(=O)O)cc2S(=O)(=O)C1 (racemic) [Example 4, 2-(((3-butyl-3-methyl-7-(methylthio)-1,1-dioxido-5-phenyl-2,3,4,5-tetrahydro-1,5-benzothiazepin-8-yl)methyl)thio)acetic acid]
14 | > 1000 | 1.1 | CCCCC1(CC)CN(c2ccccc2)c2cc(OC)c(CSCC(=O)O)cc2S(=O)(=O)C1 (single isomer, unassigned) [14, enantiomer 1]
15 | 135 | 404 | CCCCC1(C)CN(c2ccccc2)c2cc(SC)c(CSC(C)(C)C(=O)O)cc2S(=O)(=O)C1 (racemic) [Example 18, 2-(((3-Butyl-3-methyl-7-(methylthio)-1,1-dioxido-5-phenyl-2,3,4,5-tetrahydro-1,5-benzothiazepin-8-yl)methyl)thio)-2-methylpropanoic acid]
16 | 3370 | 1.7 | CCCCC1(CCCC)CN(c2ccccc2)c2cc(SC)c(CSCC(=O)O)cc2S(=O)(=O)C1 [Example 3, 2-(((3,3-dibutyl-7-(methylthio)-1,1-dioxido-5-phenyl-2,3,4,5-tetrahydro-1,5-benzothiazepin-8-yl)methyl)thio)acetic acid]
17 | 107 | 558 | CCCCC1CN(c2ccc(F)cc2)c2cc(OC)c(CSCC(=O)O)cc2S(=O)(=O)N1C (racemic) [Example 29, 2-(((3-butyl-5-(4-fluorophenyl)-7-methoxy-2-methyl-1,1-dioxido-2,3,4,5-tetrahydro-1,2,5-benzothiadiazepin-8-yl)methyl)thio)acetic acid]
18 | 155 | 2750 | CCCCC1CN(c2ccccc2)c2cc(OC)c(CSCC(=O)O)cc2S(=O)(=O)N1C (single isomer, unassigned) [36, enantiomer 2]
19 | 134 | > 1110 | CCCCC1(C)CN(c2ccccc2)c2cc(OC)c(CSC(C)(C)C(=O)O)cc2S(=O)(=O)C1 (racemic) [Example 41, 2-(((3-butyl-7-methoxy-3-methyl-1,1-dioxido-5-phenyl-2,3,4,5-tetrahydro-1,5-benzothiazepin-8-yl)methyl)thio)-2-methylpropanoic acid]
20 | > 3330 | 1.3 | CCCCC1(CCCC)CN(c2ccccc2)c2cc(OC)c(CSCC(=O)O)cc2S(=O)(=O)C1 [Example 31, 2-(((3,3-dibutyl-7-methoxy-1,1-dioxido-5-phenyl-2,3,4,5-tetrahydro-1,5-benzothiazepin-8-yl)methyl)thio)acetic acid]
21 | > 2200 | 0.6 | CCCCC1(CC)CN(c2ccc(F)cc2)c2cc(SC)c(CSCC(=O)O)cc2S(=O)(=O)C1 (racemic) [Example 6, 2-(((3-butyl-3-ethyl-5-(4-fluorophenyl)-7-(methylthio)-1,1-dioxido-2,3,4,5-tetrahydro-1,5-benzothiazepin-8-yl)methyl)thio)acetic acid]
